Test results taken from US20240353338A1 (priority 2023, published 2024).

Test system: early Delta variant of SARS-CoV-2
Format: cell-based

## Nc1nnc(Sc2ncc([N+](=O)[O-])s2)s1 [Halicin]
  antiviral effectiveness (virus growth by reverse transcriptase quantitative PCR): inhibition of virus growth
